# From patent publication US20190274978A1, “ANTIBACTERIAL COMPOSITIONS” (priority 2016, published 2019)
# Entries after “also recorded” stand apart in the source; their conditions may differ.
# Key:
# Escherichia coli = experiment: Antibiotic combination growth assay (384-well checkerboard, OD600)
# MRSA = conditions: Rajamuthiah et al. (2014, 2015); cited from earlier work
# Salmonella enterica = experiment: Antibiotic combination growth assay (384-well checkerboard, OD600); type: cell-based; conditions: in conjunction with a polymyxin (polymyxin B or polymyxin E (colistin)); Serovar Typhimurium (SL1344); FIGS. 33-36
# [1] = system: Mycobacterium tuberculosis; conditions: cited from earlier work
# M. tuberculosis = conditions: de Carvalho et al. (2011); cited from earlier work
# [2] = system: methicillin-resistant Staphylococcus aureus (MRSA); conditions: Lau et al. (2015), under the assay conditions used; cited from earlier work
# Enterococcus faecium = conditions: Rajamuthiah et al. (2015); cited from earlier work
# Klebsiella pneumoniae [3] = conditions: Rajamuthiah et al. (2015), compound alone; cited from earlier work
# Acinetobacter baumannii [4] = conditions: Rajamuthiah et al. (2015), compound alone; cited from earlier work
# Pseudomonas aeruginosa [5] = conditions: Rajamuthiah et al. (2015), compound alone; cited from earlier work
# Enterobacter aerogenes = conditions: Rajamuthiah et al. (2015), compound alone; cited from earlier work
# [6] = system: quorum sensing system in Pseudomonas aeruginosa; conditions: among FDA-approved drugs tested, Imperi et al. (2013); cited from earlier work
# P. aeruginosa = conditions: Imperi et al. (2013), FIG. 2A there; cited from earlier work
# Gram negative bacteria = conditions: in combination with an efflux pump inhibitor (e.g. TolC efflux pump inhibitor); PCT/NZ2015/050192; cited from earlier work
# macrophages = conditions: cited from earlier work
# E. coli strain 7KO:roGFP = experiment: Real-time measurement of intrabacterial redox potential (roGFP)
# Procedure: (§1) Cells were fixed with N-ethylmaleimide at various time points post niclosamide incubation, and then passed through a flow cytometry system. The ImageStream recorded each individual cell and all images were processed automatically.
# In vivo analysis of the intrabacterial redox potential was performed at 30° C. in a Synergy H1 Multimode plate reader (BioTek) with excitation measured at 405 and 480 nm and emission measured at 510 nm. Log phase bacterial cultures of 7KO:roGFP or 7KOΔtolC:roGFP were resuspended in 0.9% saline at OD 1.0, and 100 μL aliquots were loaded in individual wells of a black, clear-bottom 96-well plate. Background signals from the non-fluorescent (i.e., without pRSETB-RoGFP2) corresponding strain were obtained in the same experiment. Fluorescence signals were followed for 160-180 min, and the resulting 405/480 ratio signals were calculated. […] Reduced and oxidized controls were obtained within each experiment using a final concentration of 10 mM H2O2 or 1 mM DTT respectively.
# Samples were analyzed by the AMNIS ImageStream as previously described (van der Heijden et al. (2015) Proc Natl Acad Sci USA 112, 560-565). The laser intensities for 405, 488, 658, and 785 nm were 100, 120, 20, and 3.8, respectively. The data files were further analyzed using IDEAS software, version 6.0.129.0, which is supplied by AMNIS. Bacterial cells were selected based on fluorescence at 660 nm. Every image of an infected cell was then selected by the program based on fluorescent intensity at 660 nm. Based on this selection, a mask was created that was used for analysis of the 405/480 nm ratio. The resulting 405/480 ratio signals were plotted in a histogram. Reduced and oxidized controls were obtained within each experiment, and all values were normalized to oxidized and reduced ratio values.
# In vivo analysis of the intrabacterial redox potential was done at 30° C. in a Synergy H1 Multimode plate reader (BioTek) with excitation at 405 and 480 nm while emission was measured at 510 nm. Log phase bacterial cultures were resuspended in 0.9% saline at OD 1.0, and 200 μL per well were loaded in a black, clear-bottom 96-well plate. Background signals from the nonfluorescent corresponding strain were obtained in the same experiment.
# [7] = system: E. coli strain 7KOΔtolC:roGFP; experiment: as above; conditions: niclosamide alone in strain with in-frame deletion of tolC; FIG. 59
# Procedure: as §1
# In vivo analysis of the intrabacterial redox potential was performed at 30° C. in a Synergy H1 Multimode plate reader (BioTek) with excitation measured at 405 and 480 nm and emission measured at 510 nm. Log phase bacterial cultures of 7KO:roGFP or 7KOΔtolC:roGFP were resuspended in 0.9% saline at OD 1.0, and 100 μL aliquots were loaded in individual wells of a black, clear-bottom 96-well plate. Background signals from the non-fluorescent (i.e., without pRSETB-RoGFP2) corresponding strain were obtained in the same experiment. Fluorescence signals were followed for 160-180 min, and the resulting 405/480 ratio signals were calculated. […]
# Samples were analyzed by the AMNIS ImageStream as previously described (van der Heijden et al. (2015) Proc Natl Acad Sci USA 112, 560-565). […] The data files were further analyzed using IDEAS software, version 6.0.129.0, which is supplied by AMNIS. Bacterial cells were selected based on fluorescence at 660 nm. […]
# In vivo analysis of the intrabacterial redox potential was done at 30° C. in a Synergy H1 Multimode plate reader (BioTek) with excitation at 405 and 480 nm while emission was measured at 510 nm. […]
# Pseudomonas aeruginosa [8] = experiment: Antibiotic combination growth assay (384-well checkerboard, OD600)
# Klebsiella pneumoniae [9] = experiment: as above; conditions: in conjunction with a polymyxin (polymyxin B or polymyxin E (colistin)); antibiotic-resistant and laboratory strains; FIGS. 21-28
# Enterobacter cloacae = experiment: as above; conditions: in conjunction with a polymyxin (polymyxin B or polymyxin E (colistin)); subsp. cloacae ATCC 13047; FIGS. 29-32
# Acinetobacter baumannii [10] = experiment: as above; conditions: in conjunction with a polymyxin (polymyxin B or polymyxin E (colistin)); ATCC type strain 19606; FIGS. 37-40
compound,measurement,setting,value
"O=[N+]([O-])c1ccc(O)c([N+](=O)[O-])c1 [2,4-dinitrophenol]",synergistic effect in combination with colistin,"Escherichia coli; with colistin, E. coli MG1655, FIGS. 45, 46, 53-58",only weak synergistic effect
"Cc1cc(C(C#N)c2ccc(Cl)cc2)c(Cl)cc1NC(=O)c1cc(I)cc(I)c1O (stereo not drawn) [closantel, N-[5-Chloro-4-[(4-chlorophenyl)-cyanomethyl]-2-methylphenyl]-2-hydroxy-3,5-diiodobenzamide]",toxicity / activity against MRSA,MRSA,active
"O=C(Nc1ccc([N+](=O)[O-])cc1Cl)c1cc(Cl)ccc1O [niclosamide, N-(2′-chloro-4′-nitrophenyl)-5-chlorosalicylamide]",growth inhibition effect of the combination,Salmonella enterica,synergistic growth inhibition effect
same,MIC,[1]; Sun and Zhang (1999),0.5 to 1.0 mg/L
same,activity against non-replicating M. tuberculosis,[1]; grown in low oxygen conditions,active
same,uncoupling of the membrane potential,M. tuberculosis,uncoupled the membrane potential
same,minimum inhibitory concentration,[2],sub-micromolar
same,toxicity / activity against MRSA,MRSA,directly toxic
same,toxicity to Enterococcus faecium,Enterococcus faecium,directly toxic
same,inhibition of growth,Klebsiella pneumoniae [3],neither niclosamide nor oxyclozanide were active
same,inhibition of growth,Acinetobacter baumannii [4],neither niclosamide nor oxyclozanide were active
same,inhibition of growth,Pseudomonas aeruginosa [5],neither niclosamide nor oxyclozanide were active
same,inhibition of growth,Enterobacter aerogenes,neither niclosamide nor oxyclozanide were active
same,anti-quorum sensing activity,[6],highest anti-quorum sensing activity
same,inhibition of growth,P. aeruginosa,failed to inhibit the growth
same,direct toxicity to Gram negative bacteria,Gram negative bacteria,directly toxic
same,toxicity against macrophages,macrophages,did observe toxicity
same,intracellular redox stress (405/480 nm ratio),"E. coli strain 7KO:roGFP; 1 μM niclosamide in combination with 0.5 μM colistin, FIG. 60 C",irreversible increase in intracellular redox stress
same,intracellular redox stress (405/480 nm ratio),"E. coli strain 7KO:roGFP; 1 μM niclosamide in combination with 0.5 μM polymyxin B, FIG. 60 D",irreversible increase in intracellular redox stress
same,intracellular redox stress (405/480 nm ratio),"E. coli strain 7KO:roGFP; 1 μM niclosamide in combination with 25 μM PAβN (TolC efflux pump inhibitor), FIG. 60 B",irreversible increase in intracellular redox stress
same,intracellular redox stress (405/480 nm ratio),"E. coli strain 7KO:roGFP; niclosamide alone, FIG. 59",did not experience significant redox stress
same,intracellular redox stress (405/480 nm ratio),[7],experienced increasing redox stress; also recorded: irreversible increase in intracellular redox stress
same,growth inhibition effect of the combination,"Escherichia coli; in conjunction with a polymyxin (polymyxin B or polymyxin E (colistin)), antibiotic-resistant and laboratory strains, FIGS. 1-12",synergistic growth inhibition effect
same,growth inhibition effect of the combination,"Pseudomonas aeruginosa [8]; in conjunction with a polymyxin (polymyxin B or polymyxin E (colistin)), antibiotic-resistant and laboratory strains, FIGS. 13-20",synergistic growth inhibition effect
same,growth inhibition effect of the combination,Klebsiella pneumoniae [9],synergistic growth inhibition effect
same,growth inhibition effect of the combination,Enterobacter cloacae,synergistic growth inhibition effect
same,growth inhibition effect of the combination,Acinetobacter baumannii [10],synergistic growth inhibition effect
"CC(=O)Oc1ccccc1C(=O)Nc1ncc([N+](=O)[O-])s1 [nitazoxanide, 2-acetyloxy-N-(5-nitro 2-thiazolyl)benzamide]",uncoupling of the membrane potential,M. tuberculosis,uncoupled the membrane potential
"O=C(Nc1cc(Cl)cc(Cl)c1O)c1c(O)c(Cl)cc(Cl)c1Cl [oxyclozanide, 2,3,5-trichloro-N-(3,5-dichloro-2-hydroxyphenyl)-6-hydroxybenzamide]",toxicity / activity against MRSA,MRSA,directly toxic
same,toxicity to Enterococcus faecium,Enterococcus faecium,directly toxic
same,inhibition of growth,Klebsiella pneumoniae [3],neither niclosamide nor oxyclozanide were active
same,inhibition of growth,Acinetobacter baumannii [4],neither niclosamide nor oxyclozanide were active
same,inhibition of growth,Pseudomonas aeruginosa [5],neither niclosamide nor oxyclozanide were active
same,inhibition of growth,Enterobacter aerogenes,neither niclosamide nor oxyclozanide were active
Gramicidin,growth inhibition effect of the combination,"Escherichia coli; gramicidin with niclosamide, E. coli laboratory strain W3110, FIGS. 41-42",synergistic growth inhibition effect
same,growth inhibition effect of the combination,"Pseudomonas aeruginosa [8]; gramicidin with niclosamide, antibiotic-resistant clinical isolate (NZ isolate AR 00/537), FIGS. 43-44",synergistic growth inhibition effect
